Test results: patent publication US20240374763A1, “DIAGNOSIS AND MONITORING USING EXTRADOMAIN-B FIBRONECTIN TARGETED PROBES” (Case Western Reserve University, priority 2020, published 2024)
No end group written: not given here.

Assays:
LNCaP tumors = assay: MRMI with MT218, LNCaP xenografts; type: in vivo, mice; conditions: 0.04 mmol Gd/kg, 20 min post-injection
Description: Xenograft models were established by subcutaneous flank injections in athymic nu/nu mice for the 4 prostate cancer cells and tested with MRMI using 0.04 mmol Gd/kg of MT218.

Relaxivity measurements = type: physicochemical
Procedure: The T1 and T2 values of MT218 and Gd(HP-DO3A) solutions were determined using a 3T MRS 3000 scanner (MR Solutions, Guildford, UK). Solutions of MT218 were prepared at concentrations of 0, 0.25, 0.5, 1, and 2 mM in DPBS buffer (Gibco, Gaithersburg, MD). T1 values were measured using an inversion recovery-fast low angle shot (IR-FLASH) sequence (i=10 ms, TE=4 ms, FA=8°, echoes/frames=128, FOV=40 mm×40 mm, slice thickness =2 mm, number of averages=1, time delay=4000 ms, sample period=200, matrix=256×128). T2 values were obtained using a multi-echo multi-slice (MEMS) sequence (TE=15 ms, […], echoes=10, FOV: 40 mm×40 mm, slice thickness=1 mm, number of averages=1, matrix=256×192). The r1 and r2 relaxivities were calculated from the slopes of 1/T1 and 1/T2 vs. Gd concentration plots, respectively.

HSC3 tumors = assay: MRMI of OSCC flank xenografts, HSC3; type: in vivo, mice; conditions: MT218 0.04 mmol/kg
Procedure: Animal experiments were performed under an animal protocol approved by the Institutional Animal Care and Use Committee (IACUC) at Case Western Reserve University (CWRU, Cleveland, OH, USA). Female 4-week-old athymic nude mice purchased from the Jackson Laboratory (Bar Harbor, ME, USA) were housed in the Animal Core Facility at CWRU. Anesthetized mice were subcutaneously inoculated in the right flank with 4×10^6 GFP/luciferase-expressing OSCC cells (n=5 per cell line) in 100 μL of a 1:1 mixture of Matrigel HC (Corning) and DPBS. Tumor size was monitored with caliper measurements. After 4 weeks of growth, tumors were sufficiently large for MRI experiments.
MRI experiments were performed with a 3T MRS-3000 system (MR Solutions, Surrey, UK). Tumor-bearing mice were imaged before and at 10, 20, […] spin-echo axial sequence with respiratory gating (TR=305 ms, TE=11 ms, FOV=40×40 mm, slice thickness=1 mm, number of slices=15, Nav=2, matrix=256×248). This protocol was repeated on the same mice 2 days later using the untargeted clinical agent gadoteridol at the clinical dose of 0.10 mmol/kg.
Images were exported in DICOM format and analyzed using FIJI. Contrast-to-noise ratio (CNR) for each time point was calculated as the difference between the mean tumor intensity and the mean muscle intensity, divided by the standard deviation of noise.

[1] = test system: Capan-1 flank tumor xenografts; assay: MRMI of Capan-1 flank tumor xenografts; type: in vivo, mice
Procedure: For flank xenograft models, 4×10^6 Capan-1 cells suspended in 100 μL of a 6 mg/mL Matrigel (Corning, Corning, NY) solution was injected subcutaneously into the flank of eight-week-old female nu/nu mice. The tumor bearing mice were imaged after tumor volumes exceeded 300 mm^3. For orthotopic intrapancreatic models, the pancreas of four-week-old female nu/nu mice were surgically exposed and 1×10^6 BxPC3-GFP-Luc or PANC-1-GFP-Luc cells suspended in 100 μL of an Matrigel solution (6 mg/mL) was injected into the pancreatic tissue. Prior to imaging, growth of tumor was verified by bioluminescence imaging with intraperitoneal injection of d-luciferin on IVIS Spectrum system (Perkin Elmer, Waltham, MA).
Flank tumor-bearing mice were anesthetized and a tail vein catheter inserted. MR image acquisition was performed on a 7T Biospin (Bruker, Billerica, MA) preclinical small animal scanner with a volume radiofrequency coil. Axial images were obtained using a multi-spin multi-echo (MSME) MRI sequence (500 ms TR, 8.1 ms TE, 900 FA, 4.50 cm×4.50 cm FOV, 1.50 mm slice thickness, 16 slices, 2 averages, 200×200 matrix, 0.0225×0.0225 cm/pixel resolution). Contrast agents were injected at a dose of 0.1 mmol/kg (100 μL) via the tail vein catheter, followed by a saline flush. Images of the tumors were acquired before contrast and at various time points after contrast administration. Gd(HP-DO3A) was used as a control.
Image files were exported and analyzed in Horus software. ROIs were drawn in the tumor, liver, kidney, and muscle. Muscle ROIs were taken from muscle, with other structures (liver, kidney, tumor) identified after comparison with published images and comparison with anatomical landmarks or bioluminescent imaging. Size of ROIs drawn for image analysis are summarized in Supplemental Table S1. The contrast-to-noise ratio of the tumor (CNR) was calculated using the following equation, where σ_noise is the standard deviation of intensities from an ROI drawn outside of the mouse body: […]

## ZD2-N3-Gd(HP-DO3A) (TVRTSAD; also: conjugated to Gd(HP-DO3A) by click reaction of alkynyl-ZD2 with N3-Gd(HP-DO3A), residue of attachment not given here, Gd complex) [MT218, EDB-FN-targeted MRI contrast agent; ZD2 peptide conjugated to the clinical macrocyclic agent Gd(HP-DO3A)]
LNCaP tumors
  increase in CNR: negligible
Relaxivity measurements; at 3T (Example 1)
  T1 relaxivity: 6.13 mM⁻¹ s⁻¹
Relaxivity measurements; at 3 T, DPBS buffer
  T1 relaxivity: 6.07 ± 1.13 mM⁻¹ s⁻¹
  T2 relaxivity: 8.20 ± 0.18 s⁻¹ mM⁻¹
HSC3 tumors
  average maximum enhancement (CNR): 2.61±0.17
[1]; 0.1 mmol/kg, MT218 at 15 minutes post-injection, maintained at least 35 minutes, Gd(HP-DO3A) for the duration of the experiment
  increase of contrast to noise ratio (CNR): 4.84 fold
[1]; Capan-1 flank
  CNR compared to the clinical agent Gd(HP-DO3A): 273 % CNR of control
